Converted amounts (≈) assume the structure as drawn. Like-named read-outs stand apart in the source and are kept apart here. Where a SMILES comes first, the peptide text is derived from it. Bridges are numbered along the chain shown (N, C = ends).
What was measured:
E. coli BAA-2340 (KPC-2) = test: microbe, parasite or virus in culture; assay type: cell-based
Procedure: (§1) Bacterial strains were obtained from American Type Culture Collection. K. pneumoniae strains included BAA-1705 (blaKPC-2, hypermucoid), BAA-2146 (blaNDM-1), BAA-700603 (SHV-18, extended spectrum β-lactamase, ESBL), and BAA-1706 (non-CRE reference strain). E. coli strains included BAA-2340 (blaKPC-2), BAA-2471 (blaNDM-1), and ML35 (non-CRE reference strain).
(§2) Minimum inhibitory concentration (MIC) assays were performed ± 50% heat-inactivated mouse serum using Clinical and Laboratory Standards Institute (CLSI; document M07-A9) protocols. Bacteria (5 × 10^5 CFU/ml) were incubated with antibiotics or peptide for 20 h at 37 °C, and bacterial growth was determined by A620 using a SpectraMax M5e plate reader.

E. coli BAA-2471 (NDM-1) = test: microbe, parasite or virus in culture; assay type: cell-based
Procedure: as §1, §2

E. coli ML35 = test: microbe, parasite or virus in culture; assay type: cell-based; settings: E. coli ML35, no MDR factor
Procedure: as §1, §2

[1] = tested on: K. pneumoniae 700603 (ESBL); test: microbe, parasite or virus in culture; assay type: cell-based
Procedure: as §1, §2

[2] = tested on: K. pneumoniae BAA-1705 (KPC-2); test: microbe, parasite or virus in culture; assay type: cell-based; settings: 37 °C
Procedure: as §1, §2

K. pneumoniae BAA-1706 = test: microbe, parasite or virus in culture; assay type: cell-based
Procedure: as §1, §2

[3] = tested on: K. pneumoniae BAA-2146 (NDM-1); test: microbe, parasite or virus in culture; assay type: cell-based
Procedure: as §1, §2

[4] = tested on: Kp-1705 (K. pneumoniae BAA-1705); test: Kp-1705 bacteremic sepsis, survival; assay type: in vivo, BALB/c mice; settings: Kp-1705 i.p. in BALB/c mice; single i.p. dose 1.25 mg/kg 1 h p.i.
Procedure: BALB/c mice (Jackson Laboratories) 8–10 weeks of age were acclimated (3–5 to a cage for at least 5 days prior to infection) in a thermostatically controlled room with 12 h light/dark cycle. Cryopreserved K. pneumoniae cells were thawed and adjusted to a density of 6–10 × 10^8 CFU/ml, confirmed by plating on trypticase soy agar (TSA) plates. E. coli BAA-2340 was grown to log-phase in trypticase soy broth, pelleted, washed with PBS, and resuspended in PBS at 0.5–1 × 10^9 CFU/ml. Mice were infected by i.p. injection of 2–5 × 10^8 CFU of Kp-1705 or 3–6 × 10^7 CFU of E. coli BAA-2340 using a 28 g needle in a volume of 0.5 ml. Post-infection, mice were observed three times a day for at least 4 days and then daily for 28 days. Mice were euthanized when they became moribund. All experiments used both male and female mice and were repeated at least twice.

disseminated candidiasis = settings: mouse models of disseminated candidiasis; cited from earlier work
Text: MTD12813 is a bioinspired macrocyclic peptide that is structurally related to naturally occurring θ-defensins. RTD-1, the prototype θ-defensin, was identified as a broad-spectrum antimicrobial peptide in vitro[8],[9]. […] Mechanisms implicated in the moderation of cytokine-driven inflammation include modulation of NFκB and MAPK pathways, suppression of TNF release via the inhibition of the pro-TNF sheddase TACE (ADAM17)[26], and dis ...

[5] = tested on: CRE and non-CRE strains of K. pneumoniae and E. coli; assay type: cell-based; settings: standard CLSI assay conditions
Procedure: as §1, §2

[6] = Escherichia coli, BAA2471, 50% heat inactivated mouse serum, read-out: MIC
[7] = Escherichia coli, BAA2471, CLSI, 20 h, 37 °C, A620, no serum, read-out: MIC
[8] = Escherichia coli, 50% heat inactivated mouse serum, read-out: MIC
[9] = Escherichia coli, CLSI, 20 h, 37 °C, A620, no serum, read-out: MIC
[10] = Klebsiella pneumoniae, 50% heat inactivated mouse serum, read-out: MIC
[11] = Klebsiella pneumoniae, CLSI, 20 h, 37 °C, A620, no serum, read-out: MIC
[12] = Klebsiella pneumoniae, BAA1705, CLSI M07-A9, 5 × 10^5 CFU/ml, 20 h, A620, no serum, read-out: MIC
[13] = Klebsiella pneumoniae, BAA1706, K. pneumoniae BAA-1706, no MDR factor, 50% heat inactivated mouse serum, read-out: MIC
[14] = Klebsiella pneumoniae, BAA2146, 50% heat inactivated mouse serum, read-out: MIC
[15] = Klebsiella pneumoniae, BAA2146, CLSI, 20 h, 37 °C, A620, no serum, read-out: MIC
[16] = in the presence of 50% heat inactivated mouse serum, 20 h, A620
[17] = E. coli BAA-2340, KPC-2, 50% heat inactivated mouse serum
[18] = E. coli BAA-2340, KPC-2, CLSI, 20 h, 37 °C, A620, no serum
[19] = 50% heat inactivated mouse serum
[20] = CLSI, 20 h, 37 °C, A620, no serum
[21] = CLSI M07-A9, 5 × 10^5 CFU/ml, 20 h, A620, no serum
[22] = K. pneumoniae BAA-1706, no MDR factor, 50% heat inactivated mouse serum
[23] = K. pneumoniae BAA-1706, no MDR factor, CLSI, 20 h, 37 °C, A620, no serum

Compound	MIC (E. coli BAA-2340 (KPC-2); Escherichia coli, BAA2340)	MIC (E. coli BAA-2471 (NDM-1); [6])	MIC (E. coli BAA-2471 (NDM-1); [7])	MIC (E. coli ML35; [8])	MIC (E. coli ML35; [9])	long term (≥ 28 days) survival [4]	MIC [2, 16]	MIC (E. coli BAA-2340 (KPC-2); [17])	MIC (E. coli BAA-2340 (KPC-2); [18])	MIC (E. coli BAA-2471 (NDM-1); [19])	MIC (E. coli BAA-2471 (NDM-1); [20])	MIC (E. coli ML35; [19])	MIC (E. coli ML35; [20])	MIC [1, 19]	MIC [1, 20]	MIC [2, 21]	MIC (K. pneumoniae BAA-1706; [22])	MIC (K. pneumoniae BAA-1706; [23])	MIC [3, 19]	MIC [3, 20]	further results
C[C@@H](O)[C@H]1C(=O)N2C(C(=O)O)=C(SCCN=CN)C[C@H]12 [Imipenem]	6.25 µg/mL (≈ 20.9 µM)	25 µg/mL (≈ 83.5 µM)	50 µg/mL (≈ 167 µM)	< 0.78 µg/mL	< 0.78 µg/mL	neither carbapenem provided significant survival benefit															MIC (E. coli BAA-2340 (KPC-2); Escherichia coli, BAA2340, E. coli BAA-2340, KPC-2, CLSI, 20 h, 37 °C, A620, no serum, read-out: MIC): 25 µg/mL (≈ 83.5 µM); MIC [1, 10]: < 0.78 µg/mL; MIC [1, 11]: < 0.78 µg/mL; MIC ([2]; Klebsiella pneumoniae, BAA1705, 20 h, in the presence of 50% heat inactivated mouse serum, A620): 12.5 µg/mL; MIC [2, 12]: > 100 µg/mL; MIC (K. pneumoniae BAA-1706; [13]): < 0.78 µg/mL; MIC (K. pneumoniae BAA-1706; Klebsiella pneumoniae, BAA1706, K. pneumoniae BAA-1706, no MDR factor, CLSI, 20 h, 37 °C, A620, no serum, read-out: MIC): 3.13 µg/mL (≈ 10.5 µM); MIC [3, 14]: 25 µg/mL (≈ 83.5 µM); MIC [3, 15]: > 100 µg/mL
C[C@@H](O)[C@H]1C(=O)N2C(C(=O)O)=C(S[C@@H]3CN[C@H](C(=O)N(C)C)C3)[C@H](C)[C@H]12 [Meropenem]	6.25 µg/mL (≈ 16.3 µM)	> 100 µg/mL	50 µg/mL (≈ 130 µM)	< 0.78 µg/mL	< 0.78 µg/mL	neither carbapenem provided significant survival benefit	50 µg/mL														MIC (E. coli BAA-2340 (KPC-2); Escherichia coli, BAA2340, 20 h): 6.25 µg/mL (≈ 16.3 µM); MIC [1, 10]: < 0.78 µg/mL; MIC [1, 11]: < 0.78 µg/mL; MIC [2, 12]: 50 µg/mL (≈ 130 µM); MIC (K. pneumoniae BAA-1706; Klebsiella pneumoniae, BAA1706, 20 h): 1.56 µg/mL (≈ 4.07 µM); MIC (K. pneumoniae BAA-1706; [13]): < 0.78 µg/mL; MIC [3, 14]: > 100 µg/mL; MIC [3, 15]: 100 µg/mL (≈ 261 µM)
CC[C@H](C)[C@@H]1NC(=O)[C@@H]2CSSC[C@H](NC(=O)[C@H](CCCNC(=N)N)NC(=O)[C@@H]3CSSC[C@H](NC1=O)C(=O)N[C@@H]([C@@H](C)O)C(=O)N[C@@H](CCCNC(=N)N)C(=O)NCC(=O)N[C@@H](Cc1ccccc1)C(=O)N3)C(=O)N[C@@H](CC(C)C)C(=O)N[C@H]1CSSC[C@H](NC(=O)[C@H](C(C)C)NC(=O)CNC(=O)[C@H](CCCNC(=N)N)NC(=O)[C@H](CCCNC(=N)N)NC1=O)C(=O)N[C@@H](CCCNC(=N)N)C(=O)N2 [RTD-1] (cyclo(GFCRCLCRRGVCRCICTR); disulfide 3-16, 5-14, 7-12)							> 100 µg/mL	> 100 µg/mL	50 µg/mL (≈ 24 µM)	> 100 µg/mL	25 µg/mL (≈ 12 µM)	> 100 µg/mL	25 µg/mL (≈ 12 µM)	> 100 µg/mL	> 100 µg/mL	> 100 µg/mL	> 100 µg/mL	> 100 µg/mL	> 100 µg/mL	100 µg/mL (≈ 48 µM)	plasma Cmax as share of the MIC of the peptide (disseminated candidiasis): < 1%
Colistin						100%	< 0.78 µg/mL	< 0.78 µg/mL	< 0.78 µg/mL	< 0.78 µg/mL	< 0.78 µg/mL	< 0.78 µg/mL	< 0.78 µg/mL	< 0.78 µg/mL	< 0.78 µg/mL	< 0.78 µg/mL	< 0.78 µg/mL	< 0.78 µg/mL	< 0.78 µg/mL	< 0.78 µg/mL	MIC against all seven organisms of the panel [5]: < 0.78 µg/mL
Polymyxin B						95%	< 0.78 µg/mL	< 0.78 µg/mL	< 0.78 µg/mL	< 0.78 µg/mL	< 0.78 µg/mL	< 0.78 µg/mL	< 0.78 µg/mL	< 0.78 µg/mL	< 0.78 µg/mL	< 0.78 µg/mL	< 0.78 µg/mL	< 0.78 µg/mL	< 0.78 µg/mL	< 0.78 µg/mL	MIC against all seven organisms of the panel [5]: < 0.78 µg/mL

Source: PMC8648872, “A host-directed macrocyclic peptide therapeutic for MDR gram negative bacterial infections” (Scientific Reports, 2021)
